Data: patent US20230271956A1, “AMIDE DERIVATIVES” (Merck Patent GmbH, priority 2020, published 2023)

Tests used:
[1] = biological target: T1, ACSS2 (Homo sapiens, UniProt Q9NR19); assay: Cellular assay of 14C acetate incorporation into histones (IC50 ACSS2 cellular histone); format: cell-based; settings: HCT-15 cells
T1 construct: endogenous fatty acid synthesis activity in the human HCT-15 cancer cell line; endogenous in cells; host or cells: HCT-15
Method: This protocol describes a cellular assay capable to quantify endogenous histone acetylation activity in the human HCT-15 cancer cell line following the incorporation of extracellularly administered radiolabeled ^14C acetate with a scintillation based read out on acid extracted histones.
HCT-15 cells are trypsinized, washed and suspended in DMEM culture medium supplemented with penicillin/streptomycin (100 U/mL), sodium pyruvate (1 mM), and 10% FBS
Compounds serial dilutions are prepared in 96-well V-bottom microplate from 10 mM stock solutions in DMSO. From these dilutions 0.5 µl are transferred to a fresh plate including pure DMSO as negative control. The dilutions are prepared such, that the final concentration in the assay is 1/400 of the concentration in the serial dilution. The final DMSO concentration in the assay is 0.25 %.
The cell suspension is seeded at densities of 2x10^5 cells per 170 µl into individual wells of a 96 well plate each containing 0.5 µl aliquots of compound serial dilutions and are kept for 1h in a cell incubator. To each well 30 µL of a mixture containing 0.5 mCi/mL of ^14C-acetate with full medium are added. Then, the wells are incubated for 3 hrs in the cell incubator.
Further steps of the procedure should be conducted on ice or instrumentations precooled to 4° C. Cells are sedimented in the 96-well V-bottom microplate by centrifugation (Eppendorf 5804 R) at 1200 rpm for 5 min. The supernatant is removed and the cells are washed twice with 200µL of PBS-NaB (5 mM sodium butyrate) buffer by iterative resuspension and centrifugation. Finally, the cells are resuspended in 50 µL of TEB (PBS-NaB + 0.5 % Triton X-100) and left on ice for 10 minutes. After centrifugation at 2300 rpm for 10 minutes at 4° C. the supernatant is removed, the remaining pellet is suspended in 50 µL of 0.2 M HCl and incubated over night at 4° C. After incubation the well plate is shaken for 2 minutes in a MTP plate shaker set to 1200 rpm and then centrifuged at 3700 rpm for 10 mins. The lysate is carefully aspirated (~43 µL) and transferred into a white MTP plate (Greiner bio-one 65509). 90 µL of Ultima Gold XR scintillation cocktail are added and the plates are sealed with a transparent cover tape before mixing vigorously using plate shaker set to 1200 rpm. Radioactivity from ^14C incorporation in the wells is measured as CPM count in a MicroBeta Trilux luminescence counter.

[2] = biological target: T2, human rec ACSS2 (Homo sapiens, UniProt Q9NR19); assay: Biochemical activity ACSS2 assay (AMP-Glo); settings: human recombinant ACSS2, AMP-Glo, 180 min at 37° C.
T2 construct: myc (C); purchased Origene
T2 sequence (Q9NR19 whole entry): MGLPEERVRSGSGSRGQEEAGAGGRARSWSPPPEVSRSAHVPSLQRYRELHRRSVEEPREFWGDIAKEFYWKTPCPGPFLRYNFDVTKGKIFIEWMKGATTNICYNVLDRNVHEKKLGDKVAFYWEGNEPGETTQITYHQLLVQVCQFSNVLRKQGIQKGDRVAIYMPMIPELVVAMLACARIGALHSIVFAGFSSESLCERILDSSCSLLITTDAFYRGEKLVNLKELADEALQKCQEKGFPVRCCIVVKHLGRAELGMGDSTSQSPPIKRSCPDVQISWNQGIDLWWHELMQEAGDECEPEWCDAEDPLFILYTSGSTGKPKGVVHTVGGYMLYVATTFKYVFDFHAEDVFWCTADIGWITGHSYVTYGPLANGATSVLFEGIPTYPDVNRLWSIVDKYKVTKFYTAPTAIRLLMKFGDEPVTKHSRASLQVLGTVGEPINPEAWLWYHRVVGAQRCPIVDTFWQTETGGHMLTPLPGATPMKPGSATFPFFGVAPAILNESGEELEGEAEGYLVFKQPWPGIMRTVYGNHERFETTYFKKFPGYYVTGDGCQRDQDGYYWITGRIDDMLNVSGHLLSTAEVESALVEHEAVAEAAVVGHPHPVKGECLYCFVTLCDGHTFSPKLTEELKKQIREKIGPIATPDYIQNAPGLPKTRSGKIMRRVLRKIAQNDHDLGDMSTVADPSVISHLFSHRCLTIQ
Method: The biochemical activity assay for ACSS2 is based on the detection of released AMP by AMP-Glo ™ Assay kit (Promega, Madison). The assay is run in three steps: the enzymatic reaction in which human rec ACSS2 activates acetate with ATP and Coenzyme A as cosubstrates to acetyI-coA thereby releasing AMP and the detection reaction of AMP by AMP Glo assay in which after the destruction of the residual ATP with AMP Glo reagent 1 produced AMP is converted to ATP that is measured in a luciferase assay system (detection reagent). The ACSS2 activity correlates with the detected luminescence signal.
The assay was performed in Perkin Elmer 384well white Proxiplates in a total volume of 8 µl.
1 nM (fc) C-term myc tagged ACSS2 (human, recombinant, Origene, Rockville, US) and a mixture of 100 µM (fc) ATP, 100 µM (fc) Coenzyme A and 500 µM (fc) sodium acetate were incubated in a total volume of 5 µl (50 mM Hepes, 1 mM Mg-chloride, 150 mM NaCl, 1 mM DTT, 0.01 % (w/v) BSA, 0.3 % DMSO, pH 7.5) in the absence or presence of the test compound (10 dilution concentrations, start conc 30 µM) for 180 min at 37° C. The reaction was stopped and residual ATP destroyed by the addition of 1 µl AMP Glo reagent solution (Promega, Madison, US). After 1 h incubation at room temperature 2 µl of AMP Glo detection reagent was added and the assay was incubated for 0.75 hr at room temperature. The luminescence signal was measured with an Envision multimode reader (Perkin Elmer LAS Germany GmbH) at 700 nm in luminescence mode. The full value used was the inhibitor-free reaction. The pharmacological zero value was generated by addition of ACSS2 inhibitor (Ac-CoA Synthase Inhibitor - CAS 508186-14-9 -Calbiochem) in a final concentration of 5 µM. The inhibitory values (IC50) were determined using the program Assay Analyzer® from GeneData.

T1 sequence (Q9NR19 whole entry): as above

Row | SMILES | IC50 [1] | IC50 [2]
1 | CCn1cc(NC(=O)c2cc3c(nc2Cl)nc(C(O)(c2ccccc2)c2ccc(OC(F)F)cc2F)n3CC)cn1 (racemic) [Compound 81, 5-chloro-2-{[4-(difluoromethoxy)-2-fluorophenyl](hydroxy)phenylmethyl}-1-ethyl-N-(1-ethyl-1H-pyrazol-4-yl)-1H-imidazo[4,5-b]pyridine-6-carboxamide] | 10 to 100 nM | 1 to 10 nM
2 | CCn1cc(NC(=O)c2cc3c(nc2Cl)nc(C(O)(c2ccccc2)c2ccc(OC(F)F)cc2)n3CC)cn1 (racemic) [Compound 84, 5-chloro-2-{[4-(difluoromethoxy)phenyl](hydroxy)phenylmethyl}-1-ethyl-N-(1-ethyl-1H-pyrazol-4-yl)-1H-imidazo[4,5-b]pyridine-6-carboxamide] | 10 to 100 nM | 10 to 100 nM
3 | CCn1cc(NC(=O)c2cc3c(nc2Cl)nc(C(O)(c2ccc(OC(F)F)cc2)c2ccccc2F)n3CC)cn1 (racemic) [Compound 85, 5-chloro-2-{[4-(difluoromethoxy)phenyl](2-fluorophenyl)hydroxymethyl}-1-ethyl-N-(1-ethyl-1H-pyrazol-4-yl)-1H-imidazo[4,5-b]pyridine-6-carboxamide] | 10 to 100 nM | 10 to 100 nM
4 | CCn1cc(NC(=O)c2cc3c(nc2OC)nc(C(O)(c2ccc(OC(F)F)cc2)c2ccccc2F)n3CC)cn1 (racemic) [Compound 88, 2-{[4-(difluoromethoxy)phenyl](2-fluorophenyl)hydroxymethyl}-1-ethyl-N-(1-ethyl-1H-pyrazol-4-yl)-5-methoxy-1H-imidazo[4,5-b]pyridine-6-carboxamide] | 10 to 100 nM | 10 to 100 nM
5 | CCn1cc(NC(=O)c2cc3c(nc2Cl)nc(C(O)(c2ccccc2F)c2ccc(OC(F)F)cc2F)n3CC)cn1 (racemic) [Compound 93, 5-chloro-2-{[4-(difluoromethoxy)-2-fluorophenyl](2-fluorophenyl)hydroxymethyl}-1-ethyl-N-(1-ethyl-1H-pyrazol-4-yl)-1H-imidazo[4,5-b]pyridine-6-carboxamide] | 10 to 100 nM | 1 to 10 nM
6 | CCn1cnc(NC(=O)c2cc3c(nc2C)nc(C(O)(c2ccccc2F)c2ccc(OC(F)F)cc2F)n3CC)n1 (racemic) [Compound 97, 2-{[4-(difluoromethoxy)-2-fluorophenyl](2-fluorophenyl)hydroxymethyl}-1-ethyl-N-(1-ethyl-1H-1,2,4-triazol-3-yl)-5-methyl-1H-imidazo[4,5-b]pyridine-6-carboxamide] | 10 to 100 nM | 1 to 10 nM
7 | CCc1c(C(O)(c2ccccc2)c2ccccn2)nc2cc(OC)c(C(=O)Nc3ncn(CC)n3)cn12 (single isomer, unassigned) [Compound 17, 3-ethyl-N-(1-ethyl-1,2,4-triazol-3-yl)-2-[hydroxy-phenyl-(2-pyridyl)methyl]-7-methoxy-imidazo[1,2-a]pyridine-6-carboxamide] | 10 to 100 nM | 10 to 100 nM
8 | CCn1cnc(NC(=O)c2cc3c(nc2OC)nc(C(O)(c2ccccc2)c2ccccn2)n3CC)n1 (single isomer, unassigned) [Compound 54, 1-ethyl-N-(1-ethyl-1H-1,2,4-triazol-3-yl)-2-[hydroxy(phenyl)(pyridin-2-yl)methyl]-5-methoxy-1H-imidazo[4,5-b]pyridine-6-carboxamide] | 10 to 100 nM | 10 to 100 nM
9 | CCn1cnc(NC(=O)c2cc3c(nc2OC)nc(C(O)(c2ccccc2F)c2ccc(OC(F)F)cc2F)n3CC)n1 (single isomer, unassigned) [Compound 71] | 0.01 to 1 nM | 0.01 to 1 nM
10 | CCn1cnc(NC(=O)c2cc3c(nc2C)nc(C(O)(c2ccccc2F)c2ccc(OC(F)F)cc2F)n3CC)n1 (single isomer, unassigned) [Compound 95] | 10 to 100 nM | 10 to 100 nM
11 | CCn1cnc(NC(=O)c2cc3c(nc2C)nc(C(O)(c2ccccc2F)c2ccc(OC(F)F)cc2F)n3CC)n1 (single isomer, unassigned) [Compound 96] | 10 to 100 nM | 1 to 10 nM
12 | CCn1cnc(NC(=O)c2cc3c(nc2OC)nc(C(O)(c2ccccc2C)c2ccccc2C)n3CC)n1 [Compound 52, 1-ethyl-N-(1-ethyl-1H-1,2,4-triazol-3-yl)-2-[hydroxybis(2-methylphenyl)methyl]-5-methoxy-1H-imidazo[4,5-b]pyridine-6-carboxamide] | 10 to 100 nM | 10 to 100 nM
13 | CCn1ncc(NC(=O)c2cc3c(nc2OC)nc(C(O)(c2ccccc2)c2ccccc2)n3CC)n1 [Compound 58, 1-ethyl-N-(2-ethyl-2H-1,20,3-triazol-4-yl)-2-(hydroxydiphenylmethyl)-5-methoxy-1H-imidazo[4,5-b]pyridine-6-carboxamide] | 10 to 100 nM | 10 to 100 nM

The next lines start with the values.

Row | IC50 [1] | IC50 [2] | SMILES
14 | 1 to 10 nM | 10 to 100 nM | CCn1cc(NC(=O)c2cc3c(nc2OC)nc(C(O)(c2ccccc2)c2ccc(OC(F)F)cc2F)n3CC)cn1 (racemic) [Compound 79, 2-{[4-(difluoromethoxy)-2-fluorophenyl](hydroxy)phenylmethyl}-1-ethyl-N-(1-ethyl-1H-pyrazol-4-yl)-5-methoxy-1H-imidazo[4,5-b]pyridine-6-carboxamide]
15 | 10 to 100 nM | 10 to 100 nM | CCn1cc(NC(=O)c2cc3c(nc2OC)nc(C(O)(c2ccccc2)c2ccc(OC(F)F)cc2)n3CC)cn1 (racemic) [Compound 80, 2-{[4-(difluoromethoxy)phenyl](hydroxy)phenylmethyl}-1-ethyl-N-(1-ethyl-1H-pyrazol-4-yl)-5-methoxy-1H-imidazo[4,5-b]pyridine-6-carboxamide]
16 | 1 to 10 nM | 1 to 10 nM | CCn1cnc(NC(=O)c2cc3c(nc2OC)nc(C(O)(c2ccccc2)c2ccc(OC(F)F)cc2)n3CC)n1 (racemic) [Compound 86, 2-{[4-(difluoromethoxy)phenyl](hydroxy)phenylmethyl}-1-ethyl-N-(1-ethyl-1H-1,2,4-triazol-3-yl)-5-methoxy-1H-imidazo[4,5-b]pyridine-6-carboxamide]
17 | 1 to 10 nM | 1 to 10 nM | CCn1cnc(NC(=O)c2cc3c(nc2OC)nc(C(O)(c2ccc(OC(F)F)cc2)c2ccccc2F)n3CC)n1 (racemic) [Compound 87, 2-{[4-(difluoromethoxy)phenyl](2-fluorophenyl)hydroxymethyl}-1-ethyl-N-(1-ethyl-1H-1,2,4-triazol-3-yl)-5-methoxy-1H-imidazo[4,5-b]pyridine-6-carboxamide]
18 | 0.01 to 1 nM | 1 to 10 nM | CCn1cnc(NC(=O)c2cc3c(nc2OC)nc(C(O)(c2ccccc2)c2ccc(OC(F)F)cc2)n3CC)n1 (single isomer, unassigned) [Compound 72]
19 | 1 to 10 nM | 1 to 10 nM | CCn1cc(NC(=O)c2cc3c(nc2Cl)nc(C(O)(c2ccccc2)c2ccc(OC(F)F)cc2F)n3CC)cn1 (single isomer, unassigned) [Compound 74]
20 | 1 to 10 nM | 1 to 10 nM | CCn1cnc(NC(=O)c2cc3c(nc2OC)nc(C(O)(c2ccccc2)c2ccccc2)n3CCOC)n1 [Compound 41, N-(1-ethyl-1H-1,2,4-triazol-3-yl)-2-(hydroxydiphenylmethyl)-5-methoxy-1-(2-methoxyethyl)-1H-imidazo[4,5-b]pyridine-6-carboxamide]
